# Source: the METLIN SMRT retention time set (Domingo-Almenara et al. 2019)
# Test: gradient 5% acetonitrile 3 min, to 50% in 2 min, to 85% in 15 min, held 3 min, 100 µL/min
# Conditions: column: Zorbax Extend-C18 2.1 x 50 mm; eluents: water / acetonitrile, 0.1% formic acid
# Procedure, shortened: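 Retention time was recorded from adduct peaks, which were picked computationally and each inspected manually. Pure standards ran in mixtures of ~100 molecules on HPLC coupled to a quadrupole time-of-flight mass spectrometer, in positive and negative ionization mode, through a Zorbax Extend-C18 column (2.1 × 50 mm, 1.8 μm) at 100 μL/min. Eluents were water and acetonitrile, each with 0.1% formic acid.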
row,SMILES,RP-LC retention time
1,COc1cc(-c2noc(CN3C(=O)C(C)Oc4ccccc43)n2)cc(OC)c1OC (stereo unspecified),980 s
2,Cc1noc([C@@H]2CN(C(=O)c3cc(C)n(Cc4ccco4)c3C)C[C@H]2C(N)=O)n1,686 s
3,O=C(CCCCCN1C(=O)c2cccc3cccc(c23)C1=O)NO,694 s
4,Cc1cccc2sc(N(CCN(C)C)C(=O)c3ccc(S(=O)(=O)N(C)C)cc3)nc12,598 s
5,COc1cccc(N2C(=O)c3ccccc3C2C(=O)NC2CCCC2)c1 (stereo unspecified),775 s
6,O=C(NCCCN1CCOCC1)c1ccc(-c2cnc(NC3CCCCC3)nc2)cc1,655 s
7,CC(C)CCNC(=O)C1(C)Cn2nc(C(=O)NCc3ccccc3Cl)cc2C(=O)N1C (stereo unspecified),814 s
8,CC(C)c1cc(C2CCCN2C(=O)c2ccsc2)no1 (stereo unspecified),828 s
9,CCN1C(=O)C(CC(=O)NC2CCCCCC2)Sc2ncccc21 (stereo unspecified),804 s
10,O=C(C1CCN(c2nnc(-c3ccccc3)o2)CC1)N1CCN(C2CCCCC2)CC1,628 s
11,CC1CCN(c2cc(-n3cnc(C(=O)Nc4ccc5c(c4)OCCO5)c3)ncn2)CC1,1030 s
12,O=C1CC(c2noc(Cc3ccc(F)cc3)n2)CN1c1ccc(F)cc1 (stereo unspecified),933 s
13,Cc1ccc(N2N=NC3C(=O)N(c4ccccc4)C(=O)C32)cc1C (stereo unspecified),1010 s
14,O=C(Nc1nccnc1C(=O)NCCCN1CCOCC1)c1ccccc1,551 s
15,Clc1ccccc1-c1noc(Cc2nc(-c3ccc4c(c3)OCO4)cs2)n1,1140 s
16,CCCc1c(OCCCOc2ccc(OCC(=O)O)cc2)ccc(C(C)=O)c1O,1150 s
17,CCOC(=O)c1c(C)[nH]c(C(=O)N2CCC(CC(=O)NCc3cccnc3)CC2)c1C,608 s
18,Cc1ccccc1Cn1ccnc1C(=O)N1CCNC(=O)C1,616 s
19,COc1cccc(N2CCN(c3ccnc(SCC(=O)NCCC4=CCCCC4)n3)CC2)c1,862 s
20,O=C(Cn1ccc2sccc2c1=O)NCc1ccccc1,696 s
21,CCOC(=O)Cc1ccc(NC(=O)NCCc2c(C)nn(C)c2C)cc1,644 s
22,Fc1cccc(-c2nc(-c3ccc4c(c3)ncn4CCN3CCCC3)no2)c1,634 s
23,N#Cc1cc2c(nc1SCC(=O)Nc1nc(-c3ccccc3)cs1)CCCC2=O,1020 s
24,O=[n+]1c2c(n([O-])c3ccccc31)-c1cccc3cccc-2c13,767 s

# The remaining lines, values ahead:
row,RP-LC retention time,SMILES
1,838 s,COc1ccccc1-c1noc(C2CCCN2C(=O)Cc2c[nH]c3ccccc23)n1 (stereo unspecified)
2,696 s,CNC(=O)c1sc2nc(-c3cccc(OC)c3)c(NCCOC)n2c1C
3,1000 s,O=C(Cc1ccc(Cl)cc1)Nc1cnc(-c2ccccc2)nc1
4,918 s,Cc1ccc(C(=O)Nc2ccc(N3CCN(C4CCCC4)C3=O)nc2)cc1F
5,743 s,C=C(C)COc1ccc2c(C)c(CCC(=O)N3CCN(c4ccccn4)CC3)c(=O)oc2c1C
6,884 s,Cc1cc(C)cc(-n2ccn(Cc3nc(-c4ccc(F)cc4)no3)c(=O)c2=O)c1
7,712 s,CCc1cccc(C)c1Nc1c(-c2cccc(O)c2)nc2nc(C)cc(C)n12
8,712 s,COc1ccc(NC(=O)Nc2c(-c3ccc(C)cc3)nc3ccccn23)cc1Cl
9,994 s,O=C(Cn1cnc2c(sc3nc(-c4ccccc4)ccc32)c1=O)Nc1ccc(F)cc1
10,778 s,CCCCOc1ccc(NC(N)=Nc2ccc(Cl)cc2)cc1
11,711 s,COC(=O)c1cnc2nc(C)ccc2c1Nc1ccc(Cl)cc1F
12,701 s,CCOC(=O)c1ccccc1NC(=O)Cn1cnc2nc(N3CCC(C(=O)NC)CC3)sc2c1=O
